Assay [1] concerns HCC2998. Description: Cell growth inhibition assay (Cell Titer Glo, 3 days). Type of assay: cell-based. Particulars: Homo sapiens, HCC 2998; HCC2998, colon; BRAF WT, KRAS A146T, PIK3CA WT; mean ± std; read-out: IC50 Single Agent. As for the experimental part: Human colon tumor lines, Colo205, DLD1, HCC2998, HCT15, HCT8, HT29, KM-12, LS1034, LS174T, NCI-H508, RKO, SW1417, SW1463, SW480, SW837 and T84, and human melanoma line A375 were from ATCC. A375PF11 was derived from A375, 12R5-1, 12R5-3, 12R8-1, 12R8-3, 16R5-2, 16R6-3 and 16R6-4 are single cell clones derived from mixed populations of A375PF11 cells that were selected to grow in Compound A to concentrations of 1200 and 1600 nM. All lines were cultured in RPMI 1640 medium containing 10% fetal bovine serum (FBS).
All cells were cultured for a minimum of 72 hours prior to cell plating. Cells were assayed in a 96-well tissue culture plate (NUNC 136102) of RPMI medium containing 10% FBS for all cells at 1,000 cells per well. Approximately 24 hours after plating, cells were exposed to ten, three-fold serial dilutions of compound or the combination of the two agents at a constant molar to molar ratio of 1:10 Compound A to Compound B in RPMI media containing 10% FBS. Cells were incubated in the presence of compounds for 3 days. ATP levels were determined by adding Cell Titer Glo® (Promega) according to the manufacturer's protocol. Briefly, Cell Titer Glo® was added each plate, incubated for 30 minutes then luminescent signal was read on the SpectraMax L plate reader with a 0.5 sec integration time.
Inhibition of cell growth was estimated after treatment with compound or combination of compounds for three days and comparing the signal to cells treated with vehicle (DMSO). Cell growth was calculated relative to vehicle (DMSO) treated control wells. […]

The subject of assay [2] is 12 colon lines without BRAF V600E mutation. Put plainly: Cell growth inhibition assay (Cell Titer Glo, 3 days), summary over lines. To be noted: Homo sapiens; the other 12 colon lines without BRAF V600E mutation; single agent. Type of assay: cell-based. The protocol:
Human colon tumor lines, Colo205, DLD1, HCC2998, HCT15, HCT8, HT29, KM-12, LS1034, LS174T, NCI-H508, RKO, SW1417, SW1463, SW480, SW837 and T84, and human melanoma line A375 were from ATCC.
All cells were cultured for a minimum of 72 hours prior to cell plating. […] Cells were incubated in the presence of compounds for 3 days. ATP levels were determined by adding Cell Titer Glo® (Promega) according to the manufacturer's protocol. Briefly, Cell Titer Glo® was added each plate, incubated for 30 minutes then luminescent signal was read on the SpectraMax L plate reader with a 0.5 sec integration time.
Inhibition of cell growth was estimated after treatment with compound or combination of compounds for three days and comparing the signal to cells treated with vehicle (DMSO). Cell growth was calculated relative to vehicle (DMSO) treated control wells.
Combination effects on potency were evaluated using Combination Index (CI) which was calculated with the back-interpolated IC50 values and the mutually non-exclusive equation derived by Chou and Talalay (1): CI=Da/IC50(a)+Db/IC50(b)+(Da×Db)/(IC50(a)×IC50(b))
In general, a CI value <0.9, between 0.9 and 1.1, or >1.1 indicates synergy, additivity and antagonism, respectively. In general, the smaller the CI number, the greater is the strength of synergy.
EOHSA values are defined as increases in improvement (here, in ‘percentage points’ (ppts) difference) produced by the combination over the best single agent at its component dose level for the combination. For single agent and combination treatments, cells were exposed to compounds at a fixed-dose-ratio, and dose response curves were fit to the experimental data and analyzed using regression models. At specified total dose levels of IC50 along the dose response curve, the dose combination (corresponding to IC50) was determined for making EOHSA statistical inferences.

Take `CC(C)(C)c1nc(-c2cccc(NS(=O)(=O)c3c(F)cccc3F)c2F)c(-c2ccnc(N)n2)s1` [Compound A, N-{3-[5-(2-Amino-4-pyrimidinyl)-2-(1,1-dimethylethyl)-1,3-thiazol-4-yl]-2-fluorophenyl}-2,6-difluorobenzenesulfonamide]: the IC50 in assay [1] was over 10 µM; in assay [2], over 5 µM.

Source of the values: patent US9402846B2, “Combination of inhibitor of B-Raf and inhibitor of AKT in the treatment of cancer” (Novartis AG, priority 2009, dated 2016).
